Measurements: US20250263686A1, “METHODS OF INHIBITING NUCLEASE ACTIVITY, METHODS OF ISOLATING NUCLEI FROM CELLS, AND METHODS FOR EXTENDING DNA” (NATIONAL CHENG KUNG UNIVERSITY, priority 2024, published 2025)
Blank lines part the entries; values can stand above or below the compound they belong to.

Key:
TdT [1] = biological target: T1, TdT (Bos taurus, UniProt P06526); assay: TdT tailing of ssDNA oligo, electrophoresis and silver staining; assay type: biochemical; conditions: dATP 2 mM, FIG. 1
T1 construct: purchased
T1 sequence (P06526 whole entry): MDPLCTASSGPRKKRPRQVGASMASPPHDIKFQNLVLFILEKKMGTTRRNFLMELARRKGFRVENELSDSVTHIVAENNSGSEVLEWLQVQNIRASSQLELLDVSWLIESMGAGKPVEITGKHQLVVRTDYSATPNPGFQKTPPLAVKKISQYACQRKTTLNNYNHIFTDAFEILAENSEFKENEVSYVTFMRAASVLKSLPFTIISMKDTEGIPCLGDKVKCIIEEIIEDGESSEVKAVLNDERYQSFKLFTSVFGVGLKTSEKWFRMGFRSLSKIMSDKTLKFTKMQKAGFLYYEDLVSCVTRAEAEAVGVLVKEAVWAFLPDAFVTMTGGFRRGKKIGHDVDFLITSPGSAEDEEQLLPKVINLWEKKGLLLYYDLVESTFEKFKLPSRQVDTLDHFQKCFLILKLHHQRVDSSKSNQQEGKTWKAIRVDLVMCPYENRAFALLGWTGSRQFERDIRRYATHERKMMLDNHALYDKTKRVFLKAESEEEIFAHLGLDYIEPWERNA
Procedure: 0.5 pmole of an ssDNA oligo (SEQ ID NO: 1) was incubated in 10 μL volumes of various compositions plus dATP (2 mM) and commercial TdT (0.25 μL) at 37° C., 45° C., 55° C., 65° C., 75° C. for 30, 5, 5, 5, 20 minutes, respectively. All the reaction was used for electrophoresis (FIG. 1).

TdT [2] = biological target: T1, TdT; assay: TdT tailing of 3' recessed-end dsDNA substrate, electrophoresis and silver staining; assay type: biochemical; conditions: 37° C. for 60 minutes; for TdT tailing of 3' recessed-end substrate, alternative ingredients: compared with dATP and Co2+ buffer, FIG. 3
Procedure: 3′ recessed dsDNA was prepared by annealing 25 μM each of SEQ ID NO: 2 and SEQ ID NO: 3 in Tris-HCl pH 8 (25 mM), NaCl (12.5 mM), and EDTA (0.25 mM). 2.5 pmole of the annealed substrate was incubated in 20 μL of reaction mixtures containing PMSF (0.5 mM), dATP (2 mM), TRITON® X-100 (0.1%), Tris-acetate pH 7.9 (20 mM), and either Mg^2+ or Co^2+ in chloride salt form (M^2+, 0.75 mM) as tailing cofactors, with (+) or without (−) of TdT (0.25 μL) at 37° C. for 60 minutes followed by 75° C. for 20 minutes. Subsequently, all the reactions were loaded for electrophoresis.
5 pmole of the 3′ recessed-end substrate as in Example 2 was incubated in 10 μL of reaction containing HEPES (H) or Tris-acetate (T) pH 7.9 (20 mM), dATP (dA) or dGTP (dG) (2 mM), CoCl2 (Co) or MnCl2 (Mn) (0.75 or 2 mM), DTT (0 or 0.2 mM), and TdT (0 or 0.25 μL) at 37° C. for 60 minutes followed by 75° C. for 20 minutes before loading half of the samples for electrophoresis (FIG. 3).

pancreatic nucleases = assay: RNaseAlert fluorescent assay of nuclease activity in crude pancreatic lysate; assay type: biochemical, murine; conditions: for inhibition of nuclease activity by Cu2+ in the presence of chelators: 2 mM CuSO4 plus 2 mM chelator, FIG. 10
Procedure: The crude pancreatic lysate was prepared by lyzing 10 mg of murine pancreas in 400 μL of lysis buffer (HEPES pH 7.2 20 mM, NaCl 146 mM, CaCl2 1 mM, MgCl2 21 mM, TWEEN® 20 0.1%, NP-40 0.1%, and digitonin 0.01%). The lysis was performed by bead beating (10 seconds, 4500 rpm) in 2 ml plastic tubes containing 6 glass beads of 2.5-mm diameter. The lysate was subjected to centrifugation at 17,000 RCF for 1 minute before the cleared nuclease-laden supernatant was kept for the assays.
To detect the nuclease activity, an RNaseAlert™ oligo made of chimeric DNA-RNA-DNA with a green fluorescence molecule on one end and a quencher on the other (50 nM) was used in 25 μL final reaction volume. The reactions were conducted in the pancreatic lysis buffer with a final volume of 25 μL, containing the specified additives (pancreatic lyate, CuSO4, or ZnSO4) in FIG. 5. After incubating at ambient temperature for 30 minutes, the reactions were diluted with 150 μL of the same buffer, excluding substrates and the lysate. Fluorescence detection was performed in triplicate, with excitation at 490 nm and emission at 520 nm.
(§1) The RNaseAlert™ oligo (50 nM) was prepared in pancreatic lysis buffer with a final volume of 25 μL, containing the specified additives (pancreatic lysate, CuSO4, or Cu^2+-citric acid at various concentrations) in FIG. 7. After incubating at ambient temperature for 30 minutes, the reactions were diluted to 150 μL with the same buffer, excluding substrates and lysate, for fluorescence quantification in triplicate of 50 μL.
as §1, with “lysis buffer, either HEPES-SO4 at pH 4.5 or HEPES at pH 7.2,” for “lysis buffer”, “lysate, Cu^2+,” for “lysate, CuSO4,”, “or chelators) and pH levels (pH 4.5 or 7.2)” for “or Cu^2+-citric acid at various concentrations)”, “FIG. 8.” for “FIG. 7.”
The RNaseAlert™ oligo (50 nM) was prepared in the pancreatic lysis buffer to a final volume of 25 μL, containing the specified additives (pancreatic lysate, 2 mM CuSO4, or 2 mM of various chelators), as shown in FIG. 10. After incubating at ambient temperature for 30 minutes, the reactions were diluted to 150 μL with the same buffer, excluding substrates and lysate, for fluorescence quantification in triplicate of 50 μL.
The RNaseAlert™ oligo (50 nM) was prepared in either the pancreatic lysis buffer (Buffer P) or a low-pH buffer (Buffer C, composed of 25 mM citrate at pH 3 and 250 mM sucrose) to a final volume of 25 μL. The preparation contained the specified additives (pancreatic lysate, 1% DEPC, and Cu^2+-citric acid at specified concentrations) and is depicted in FIG. 11. After incubating at ambient temperature for 30 minutes, the reactions were diluted to 150 μL with the same buffer, excluding substrates and lysate, for fluorescence quantification in triplicate of 50 μL.

[3] = Precipitation by optical density at 600 nm, with or without bovine serum albumin; assay type: physicochemical; conditions: for protein aggregation / precipitation with bovine serum albumin (visual and OD600): BSA 10 g/L, pH 4.5, 5.5 and 7.2, FIG. 6
Procedure: A total of 180 μL of reactions per well were prepared at ambient temperature in a 96-well plate. These reactions contained various buffers (none or 100 mM) at specified pH levels, Cu^2+ salts in either sulfate (no pH adjustment) or citrate form (at pH 4.5 or 7.2, as specified) at the indicated concentrations, and bovine serum albumin (10 g/L final concentration) in FIG. 6. The reactions were prepared in triplicate, photographed directly (FIG. 6, lower), and measured for optical density at 600 nm (FIG. 6, upper) to indicate precipitation.

RNase A = biological target: T2, RNase A (Bos taurus, UniProt P61823); assay: RNaseAlert fluorescent assay with RNase A; assay type: biochemical; conditions: RNase A 50 ng, 10 minutes at ambient temperature, FIG. 9
T2 sequence (P61823 27-150): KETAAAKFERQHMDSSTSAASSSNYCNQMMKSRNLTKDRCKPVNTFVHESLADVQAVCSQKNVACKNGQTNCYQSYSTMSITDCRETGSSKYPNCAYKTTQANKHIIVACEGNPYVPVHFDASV
Procedure: as §1, with “Cu^2+-citric acid,” for “CuSO4,”, “or” for “or Cu^2+-citric acid at”, “nucleases)” for “concentrations)”, “9.” for “7.”, “10” for “30”

micrococcal nuclease = micrococcal nuclease (Staphylococcus aureus, UniProt P00644); assay: RNaseAlert fluorescent assay with micrococcal nuclease; assay type: biochemical; conditions: micrococcal nuclease 200 gel units, 10 minutes at ambient temperature, FIG. 9
Procedure: as §1, with “Cu^2+-citric acid,” for “CuSO4,”, “or” for “or Cu^2+-citric acid at”, “nucleases)” for “concentrations)”, “9.” for “7.”, “10” for “30”

benzonase = benzonase (Serratia marcescens, UniProt P13717); assay: RNaseAlert fluorescent assay with benzonase; assay type: biochemical; conditions: benzonase 20 units, 10 minutes at ambient temperature, FIG. 9
Chain of benzonase (P13717 22-266): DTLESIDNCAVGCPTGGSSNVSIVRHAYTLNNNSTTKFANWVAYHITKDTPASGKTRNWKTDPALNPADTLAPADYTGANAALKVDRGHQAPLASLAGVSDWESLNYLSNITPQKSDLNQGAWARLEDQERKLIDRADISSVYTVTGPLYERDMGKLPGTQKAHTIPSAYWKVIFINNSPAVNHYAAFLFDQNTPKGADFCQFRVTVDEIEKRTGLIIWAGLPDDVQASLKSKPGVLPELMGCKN
Procedure: as §1, with “Cu^2+-citric acid,” for “CuSO4,”, “or” for “or Cu^2+-citric acid at”, “nucleases)” for “concentrations)”, “9.” for “7.”, “10” for “30”

pancreatic nuclease = assay: RT-qPCR of nuclear mRNA (GAPDH, PSMB4) in HEK293 nuclei exposed to pancreatic lysate; assay type: biochemical, murine; conditions: 10 mM complex, pH 4.5 and 7.2, HEK293 nuclei, FIG. 12
Procedure: To mimic nuclear extraction by direct lysis of challenging organs, HEK293 cells were lysed in the presence of nuclease-rich pancreatic lysate, with or without the Cu^2+-chelator complex: Thirty μL of pancreatic lysis buffer containing 50 mM HEPES at pH 4.5 or 7.2, 1× Halt proteinase inhibitor, 2 μL of pancreatic lysate, and either 0 mM (control) or 10 mM of Cu^2+-citric acid complex from 250 mM stock solutions (at pH 4.5 and 7.2, respectively) were prepared on ice. 20,000 HEK293T cells in 2 μL of PBS were added to the lysis buffer, and the nuclei were released by rotating the cells in the fridge for 15 minutes. The nuclear pellets were obtained by centrifugation in a swing-bucket rotor at 1,000 g for 1 minute, washed twice with the same buffers excluding HALT, with the detergent in the wash buffer removed and replaced with 0.05% PVA. The washed nuclei were lysed with 15 μL of lysis buffer containing 0.2% TX-100 and […] proteinase K by vortexing at 1,200 rpm for 30 minutes at 37° C. The lysate was divided equally into 20 μL RT reactions, each containing RNA lysates, 0.2 μL of PMSF (50 mM in DMSO), 1× RT buffer (Tris-HCl pH 8.3, 50 mM; KCl, 75 mM; MgCl2, 3 mM; DTT, 5 mM), dNTPs (final concentration 0.5 mM each), homemade rat RNase inhibitor (100 ng), PVA (0.05%), T23VN (1 μM), and either 0 (for genomic DNA control) or 100 ng of homemade reverse transcriptase. […]

SMILES: [Cl][Co][Cl] [Co^2+, cobalt chloride]
TdT poly(dA) tailing of ssDNA substrate (TdT [1]): could replace Mg^2+ for tailing the ssDNA | TdT tailing of 3' recessed-end substrate, Co2+ versus Mg2+ (TdT [2]; M2+ 0.75 mM, dATP 2 mM, FIG. 2): nearly complete upshift of the substrate

solubility in water (precipitation, OD600) ([3]; neutral pH, no protein, concentrations as low as 1 mM, FIG. 6): only minimally soluble
SMILES: O=S(=O)([O-])[O-].[Cu+2] [Cu^2+, CuSO4]
nuclease activity in pancreatic lysate (pancreatic nucleases; CuSO4 in pancreatic lysis buffer pH 7.2, 30 minutes at ambient temperature, FIG. 5): effectively diminished the nuclease activity | protein aggregation / precipitation with bovine serum albumin (visual and OD600) [3]: severe protein aggregation at pH above 5.5

SMILES: CC(=O)[O-].CC(=O)[O-].[Mg+2] [Mg^2+, magnesium acetate]
TdT poly(dA) tailing of ssDNA substrate (TdT [1]): yielded shorter tails

TdT tailing of 3' recessed-end substrate, alternative ingredients (TdT [2]): does not affect the results
SMILES: O[C@H](CS)[C@H](O)CS (racemic) [DTT, dithiothreitol]

SMILES: CC(=O)[O-].[K+] [K^+, potassium acetate]
TdT poly(dA) tailing of ssDNA substrate (TdT [1]): detrimental to tailing

SMILES: O=C(O)CN(CC(=O)O)CC(=O)O.[Cu] [Cu^2+ with nitrilotriacetic acid (NTA), copper; 2-[bis(carboxylatomethyl)amino]acetate;hydron]
inhibition of nuclease activity by Cu2+ in the presence of chelators (pancreatic nucleases; 30 minutes): still inhibited nuclease activity

TdT tailing of 3' recessed-end substrate, alternative ingredients (TdT [2]): detrimental
SMILES: Nc1nc2c(ncn2[C@H]2C[C@H](O)[C@@H](COP(=O)(O)OP(=O)(O)OP(=O)(O)O)O2)c(=O)[nH]1 [dGTP]

TdT tailing of 3' recessed-end substrate, alternative ingredients (TdT [2]): not to improve
SMILES: [Cl][Mn][Cl] [Mn^2+, MnCl2]

SMILES: O=C(O)CC(O)(CC(=O)O)C(=O)O.[Cu].[Cu] [Cu^2+-citric acid complex, dicopper; 2-hydroxypropane-1,2,3-tricarboxylic acid]
inhibition of nuclease activity by Cu2+ in the presence of chelators (pancreatic nucleases; 30 minutes): still inhibited nuclease activity | RNase inhibition compared with low-pH buffer and DEPC (pancreatic nucleases; 10 mM complex, 30 minutes, FIG. 11): comparable RNase inhibition to the low-pH buffer | nuclease-blocking activity at acidic and neutral pH (pancreatic nucleases; pH 4.5 and pH 7.2, FIG. 8): active at both acidic and neutral pH | blocking of pancreatic nuclease activity, chelated versus unchelated Cu2+ (pancreatic nucleases; various concentrations, 30 minutes at ambient temperature, FIG. 7): still capable of blocking pancreatic nuclease activity in a dose-dependent manner, similar or even more potent to the unchelated form | protein aggregation / precipitation with bovine serum albumin (visual and OD600) [3]: resolved this issue at all pH values tested | blocking of RNase A activity (RNase A): capable of blocking the activities | blocking of micrococcal nuclease activity (micrococcal nuclease): capable of blocking the activities | blocking of benzonase activity (benzonase): capable of blocking the activities | protection of nuclear RNA from degradation by pancreatic nuclease (pancreatic nuclease): necessary to protect and retain nuclear RNA from complete degradation
